From patent US20110070552A1, “USE OF SECONDARY OPTICAL EMISSION AS A NOVEL BIOFILM TARGETING TECHNOLOGY” (NOMIR MEDICAL TECHNOLOGIES INC, priority 2003, published 2011)

What was measured:
Type in all cases: in vivo, human
[1] = system: biofilm in periodontal pocket; experiment: Treatment of a recalcitrant 10 mm periodontal pocket: chromophore staining plus 830 nm diode laser hot tip; conditions: one patient; for periodontal pocket probing depth: baseline 10 mm pocket, 0.1% MB solution, laser 1000 mW
Source text: (§1) The laser used to exemplify the invention was a 830 nm diode laser with a power output of between 800 mW-1200 mW in the Continuous Wave mode of operation, through a 600 micron silica laser delivery fiber. The live human patients (in vivo) all presented with some advanced state of periodontal or periimplant disease and/or active infection. Presented below are data for two representative patients.
Presented as a healthy […] with a recalcitrant 10 mm periodontal pocket on the facial aspect of the maxillary canine (tooth #6) after a regular dental cleaning and scaling. In a minimally invasive procedure, the patient was anesthetized with xylocaine, and the periodontal pocket was infused with 0.1% MB solution via a small bristled brush that easily fits into the volume of the pocket. The MB solution was left for approximately 2 minutes in the area, and then surface irrigation of H2O was applied.
A […] silica fiber connected to a 830 nm dental diode laser (sold by Lumenis Technologies, Yokneam, Israel) was then activated at 1000 mW and the fiber was placed into the periodontal pocket, where it immediately came in contact with biofilm, tissue, and blood products. The tip of the fiber immediately carbonized, and became incandescent. The fiber (with the secondary quantum emissions emanating from the carbonized tip), was then moved around the three dimensional area of the periodontal pocket for a period of 30 to 45 seconds in rapid movements, never staying in one direct area for more than 1 second at a time. The area was then scaled with traditional gracey periodontal scalers (sold by Hu-Friedy Chicago, Ill.), and then irrigated with copious water. The patient was sent home with administration of 600 mg of Ibuprophen (sold by Wyeth, Madison, N.J.) analgesic given chair-side, and no antibiotics.

[2] = system: biofilm and infection around titanium implant; experiment: Treatment of infected periimplant tissue: chromophore staining plus 830 nm diode laser hot tip
Source text: as §1
Presented as a brittle diabetic with an infected titanium implant and a fistula draining the infection. Radiographic appearance detailed 8 mm of lost bone, and generalized radiolucency around the medial half of the implant. […] The area was surgically opened with a conventional trapezoidal shaped flap, and the infection and biofilm effected area was bathed in a 0.1% MB solution (sold by Vista Dental Products, Racine, Wis.) for approximately 2 minutes. The area was then irrigated with copious H2O, leaving the targeted biofilm behind, and washing away excess stain. A […] silica fiber connected to an 830 nm dental diode laser was then activated at 1200 mW and the fiber was placed in contact with biofilm and blood products and immediately carbonized. […]

[3] = system: periodontal and periimplant pockets and infections; experiment: Procedure performed on 50 patients in periodontal and periimplant pockets and infections; conditions: 50 patients in the last 24 months, 830 nm diode laser 800 mW-1200 mW CW, 600 micron fiber
Source text: as §1

SMILES | state of the periodontal pocket ([1]; 0.1% MB solution approx. 2 minutes, laser 1000 mW 30 to 45 seconds, then scaling, eight days post-op) | periodontal pocket probing depth ([1]; at four months) | periodontal pocket probing depth ([1]; at six weeks) | infection status of periimplant area ([2]; one diabetic patient, 0.1% MB solution approx. 2 minutes, laser 1200 mW 60 to 90 seconds, scaling, 5 day Amoxicillin, three weeks post-op) | infection status of periimplant area ([2]; same patient, at 9 months) | clinical outcome [3]
CN(C)c1ccc2nc3ccc(=[N+](C)C)cc-3sc2c1 [Methylene Blue] | completely closed | 3 mm | 3 mm | completely free of infection | still infection free | successful outcomes
Cc1cc2nc3ccc(N(C)C)cc3[s+]c2cc1N.[Cl-] [Toludine Blue] | – | – | – | – | – | successful outcomes
